Two molecules from PMC9977294, “A parasitic fungus employs mutated eIF4A to survive on rocaglate-synthesizing Aglaia plants” (eLife, 2023) can be followed below.

Values joined by “and” are separate entries in the source; they are usually repeats but may differ in a detail not shown here. Identical values can stand only once.

One assay deals with C. orbiculare eIF4A^WT. The experiment in a line: In planta fungal biomass on cucumber cotyledons (RT-qPCR). Type of assay: in vivo, Colletotrichum orbiculare. The procedure: Fungal inoculation was performed as previously described ([Hiruma and Saijo, 2016]; [Kumakura et al., 2019]) with modifications. Cucumber cotyledons were used for C. orbiculare inoculation. Seeds of cucumber, Cucumis sativus Suyo strain (Sakata Seed Corp.), were planted on a mix of equal amounts of vermiculite (VS Kakou) and Supermix A (Sakata Seed Corp.). Cucumbers were grown at 24°C under a 10 hr light/14 hr dark cycle using biotrons (NK Systems). Cotyledons were detached from seedlings of cucumbers and inoculated with C. orbiculare at 13 days post-germination. C. orbiculare strains (eIF4A^WT#1 and eIF4A^H153G#1, Supplementary file 4) were cultured on 100 ml of 3.9% PDA in a 300 ml flask at 25°C for 6 days in the dark. […] The concentration of conidia was measured with disposable hemacytometers (Funakoshi) and adjusted to 10^5 conidia/ml with or without aglafoline (1 µM). […]
The living fungal biomass in cucumber leaves at 3.5 days postinoculation (dpi) was measured by RT-qPCR. Relative expression levels of the C. orbiculare 60S ribosomal protein L5 gene (GenBank: Cob_v012718) ([Gan et al., 2013]) normalized to that of a cucumber cyclophilin gene (GenBank: AY942800.1) ([Liang et al., 2018]) were determined. […]
Background: Quantitative PCR measures a nucleic acid by following its amplification.

Assay [1] has as its target T1, H. sapiens eIF4A1 Phe163His (Homo sapiens, UniProt P60842, F163H).
T1 construct: His tag (N); made in house; host or cells: E. coli BL21 Star (DE3)
Nature of the assay: Fluorescence polarization assay, FAM-labeled [AG]10 RNA and recombinant eIF4A. The class given is binding. Particulars: RocA 50 µM. The procedure: The fluorescence polarization assay was performed as previously described ([Chen et al., 2021]). […] After incubation at room temperature for 30 min, the mixture was transferred to a black 384-well microplate (Corning), and the fluorescence polarization was measured by an Infinite F-200 PRO (Tecan). Under ADP + Pi conditions, 1 mM ADP (Fujifilm Wako Chemicals) and 1 mM Na2HPO4 were used as substitutes for AMP-PNP. The data were fitted to the Hill equation to calculate Kd values and visualized by Igor Pro v8.01 (WaveMetrics).
In general terms: Polarisation of emitted light reports the rotation of a fluorescent probe.

T1 sequence (P60842 whole entry F163H): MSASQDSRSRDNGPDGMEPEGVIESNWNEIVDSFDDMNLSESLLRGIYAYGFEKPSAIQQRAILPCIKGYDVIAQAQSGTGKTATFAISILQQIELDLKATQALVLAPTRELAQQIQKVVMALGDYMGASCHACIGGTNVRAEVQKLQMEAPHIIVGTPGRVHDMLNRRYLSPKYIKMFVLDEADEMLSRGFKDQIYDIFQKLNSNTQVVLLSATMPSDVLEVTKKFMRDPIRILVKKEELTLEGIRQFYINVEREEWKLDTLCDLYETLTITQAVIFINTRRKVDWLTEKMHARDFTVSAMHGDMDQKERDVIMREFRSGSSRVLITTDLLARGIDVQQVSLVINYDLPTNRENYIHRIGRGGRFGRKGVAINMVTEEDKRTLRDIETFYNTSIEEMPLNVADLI

As for `COC(=O)[C@H]1[C@@H](O)[C@@]2(O)c3c(OC)cc(OC)cc3O[C@@]2(c2ccc(OC)cc2)[C@@H]1c1ccccc1` [Aglafoline, methyl rocaglate], the “in planta fungal biomass” value with C. orbiculare eIF4A^WT (cucumber leaves, 1 µM aglafoline, 3 dpi, Figure 4B) is “reduced the biomass of the WT eIF4A-recombined strain on cucumber leaves”. In addition, the “In planta fungal biomass (Figure 4B source data), single replicates” value with C. orbiculare eIF4A^WT (eIF4AWT, aglafoline +, Replicate 1-8) is 0.01241 and 0.4556 and 0.03831 and 0.01038 and 0.09347 and 0.5781 and 0.1819 and 0.09019.

Take `COc1ccc([C@@]23Oc4cc(OC)cc(OC)c4[C@]2(O)[C@H](O)[C@H](C(=O)N(C)C)[C@H]3c2ccccc2)cc1` [RocA, rocaglamide A]: the “fluorescence polarization, Mean” value in assay [1] (ADP + Pi, protein 0.01 μM) is reported as -0.03005; in assay [1] (ADP + Pi, protein 0.05 μM) it was -0.008197; in assay [1] (ADP + Pi, protein 0.075 μM), 0.02186; in assay [1] (ADP + Pi, protein 0.1 μM), 0.01639; in assay [1] (ADP + Pi, protein 0.5 μM), 0.08197; in assay [1] (ADP + Pi, protein 0.75 μM), 0.06831. Besides, the “fluorescence polarization, Mean” value worked out at 0.1694 in assay [1] (ADP + Pi, protein 1 μM); 0.3306 in assay [1] (ADP + Pi, protein 5 μM); 0.4153 in assay [1] (ADP + Pi, protein 7.5 μM); 0.5765 in assay [1] (ADP + Pi, protein 10 μM); 0.6311 in assay [1] (ADP + Pi, protein 25 μM); 0.8251 in assay [1] (ADP + Pi, protein 50 μM). The “fluorescence polarization, Mean” value is -0.005464 in assay [1] (AMP-PNP, protein 0.01 μM); 0.0847 in assay [1] (AMP-PNP, protein 0.05 μM); 0.1721 in assay [1] (AMP-PNP, protein 0.075 μM); 0.3169 in assay [1] (AMP-PNP, protein 0.1 μM); 0.7951 in assay [1] (AMP-PNP, protein 0.5 μM); 0.8306 in assay [1] (AMP-PNP, protein 0.75 μM). Further, the “fluorescence polarization, Mean” value is recorded as 0.9317 in assay [1] (AMP-PNP, protein 1 μM); 0.9536 in assay [1] (AMP-PNP, protein 5 μM); 0.8907 in assay [1] (AMP-PNP, protein 7.5 μM); 0.9481 in assay [1] (AMP-PNP, protein 10 μM); 0.9481 in assay [1] (AMP-PNP, protein 25 μM); 1 in assay [1] (AMP-PNP, protein 50 μM). Also, the “fluorescence polarization, replicates” value in assay [1] (ADP + Pi, protein 0.01 μM) is 0.07104 and -0.06011 and -0.1011; in assay [1] (ADP + Pi, protein 0.05 μM) it was 0.03005 and 0.005464 and -0.06011; in assay [1] (ADP + Pi, protein 0.075 μM) it was 0.03005 and 0.01366 and 0.02186; in assay [1] (ADP + Pi, protein 0.1 μM) it was 0.04645 and -0.01913 and 0.02186; in assay [1] (ADP + Pi, protein 0.5 μM), 0.04645 and 0.1038 and 0.09563; in assay [1] (ADP + Pi, protein 0.75 μM) it was 0.1448 and -0.01913 and 0.07923. Moreover, the “fluorescence polarization, replicates” value was 0.2514 and 0.1694 and 0.08743 in assay [1] (ADP + Pi, protein 1 μM); 0.3415 and 0.3661 and 0.2842 in assay [1] (ADP + Pi, protein 5 μM); 0.3579 and 0.4973 and 0.3907 in assay [1] (ADP + Pi, protein 7.5 μM); 0.694 and 0.5301 and 0.5055 in assay [1] (ADP + Pi, protein 10 μM); 0.6366 and 0.7022 and 0.5546 in assay [1] (ADP + Pi, protein 25 μM); 0.7268 and 0.8579 and 0.8907 in assay [1] (ADP + Pi, protein 50 μM). Besides, the “fluorescence polarization, replicates” value in assay [1] (AMP-PNP, protein 0.1 μM) is 0.2705 and 0.3525 and 0.3279; in assay [1] (AMP-PNP, protein 0.5 μM) it was 0.7705 and 0.7869 and 0.8279; in assay [1] (AMP-PNP, protein 0.75 μM), 0.8361.
